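Exposure lasted 48 hours, with cells grown in 96-well plates and compounds tested at five concentrations. The concentration for 50% growth inhibition is given as GI50.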 The source made the active and inactive calls. Rule as the data show it: active = GI50 up to about 1.1 µM and inactive = higher.
Key:
Experiment in all cases: NCI-60 cell line screen, 48 h
[1] = tested on: TK-10
[2] = tested on: IGROV-1
[3] = tested on: MDA-N
[4] = tested on: A549
[5] = tested on: HOP-92
[6] = tested on: Hs-578T
[7] = tested on: 786-0
[8] = tested on: HCC 2998
[9] = tested on: SN12C
[10] = tested on: UACC-257
[11] = tested on: NCI-H460
[12] = tested on: SF-295
[13] = tested on: HCT-15
[14] = tested on: NCI-H226
[15] = tested on: NCI-H522
[16] = tested on: HL-60
[17] = tested on: OVCAR-3
[18] = tested on: SK-MEL-5
[19] = tested on: BT-549
[20] = tested on: SW-620
[21] = tested on: OVCAR-8
[22] = tested on: ACHN
[23] = tested on: MDA-MB-231
[24] = tested on: EKVX
[25] = tested on: SNB-19
[26] = tested on: MCF7
[27] = tested on: UO-31
[28] = tested on: COLO 205
[29] = tested on: CAKI-1
[30] = tested on: LOX IMVI
[31] = tested on: U-251
[32] = tested on: SK-OV-3
[33] = tested on: SK-MEL-2
[34] = tested on: MOLT-4
[35] = tested on: PC-3
[36] = tested on: SF-539
[37] = tested on: UACC-62
[38] = tested on: M14
[39] = tested on: OVCAR-4
[40] = tested on: HOP-62
[41] = tested on: OVCAR-5
[42] = tested on: SNB-75
[43] = tested on: RXF 393
[44] = tested on: DU-145
[45] = tested on: NCI/ADR-RES
[46] = tested on: CCRF-CEM
[47] = tested on: NCI-H23
[48] = tested on: MDA-MB-435
[49] = tested on: SF-268
[50] = tested on: SK-MEL-28
[51] = tested on: KM12
[52] = tested on: HCT-116
[53] = tested on: T47D
[54] = tested on: HT-29
[55] = tested on: Malme-3M
[56] = tested on: K562
[57] = tested on: RPMI-8226
[58] = tested on: A498
[59] = tested on: SR

Measured: GI50

C=C(Nc1nc2ccc(C)cc2s1)C(=O)C(CC)C(=O)C(CC)CC1C(=O)NC(=O)NC1=O (centres undefined)
> 100 µM: [13]
inactive: [1] > 100 µM | [2] > 100 µM | [3] > 100 µM | [4] > 100 µM | [5] > 100 µM | [6] > 100 µM | [7] > 100 µM | [8] > 100 µM | [9] > 100 µM | [10] > 100 µM | [11] > 100 µM | [12] > 100 µM | [14] > 100 µM | [15] > 100 µM | [16] > 100 µM | [17] > 100 µM | [18] > 100 µM | [19] > 100 µM | [20] > 100 µM | [21] > 100 µM | [22] > 100 µM | [23] > 100 µM | [24] > 100 µM | [25] > 100 µM | [26] > 100 µM | [27] > 100 µM | [28] > 100 µM | [29] > 100 µM | [30] > 100 µM | [31] > 100 µM | [32] > 100 µM | [33] > 100 µM | [34] > 100 µM | [35] > 100 µM | [36] > 100 µM | [37] > 100 µM | [38] > 100 µM | [39] > 100 µM | [40] 32 µM | [41] > 100 µM | [42] > 100 µM | [43] > 100 µM | [44] > 100 µM | [45] > 100 µM | [46] > 100 µM | [47] > 100 µM | [48] > 100 µM | [49] > 100 µM | [50] > 100 µM | [51] > 100 µM | [52] > 100 µM

O=[N+]([O-])c1cc(Cl)ccc1S(=O)(=O)c1ccccc1
inactive: [1] > 100 µM | [2] > 100 µM | [53] 66.7 µM | [54] 74.6 µM | [4] > 100 µM | [5] 82 µM | [55] 52.8 µM | [6] 26.7 µM | [7] > 100 µM | [8] > 100 µM | [56] 65.6 µM | [9] > 100 µM | [10] 34 µM | [11] > 100 µM | [12] > 100 µM | [14] 67.6 µM | [15] 57.4 µM | [16] 38.9 µM | [17] > 100 µM | [18] 49.2 µM | [19] 60.7 µM | [20] > 100 µM | [21] > 100 µM | [22] > 100 µM | [23] 51.3 µM | [24] > 100 µM | [25] > 100 µM | [26] > 100 µM | [27] > 100 µM | [28] 70 µM | [29] > 100 µM | [57] > 100 µM | [30] 27.6 µM | [31] > 100 µM | [32] > 100 µM | [33] 17.3 µM | [58] > 100 µM | [34] > 100 µM | [35] > 100 µM | [36] > 100 µM | [37] 53 µM | [38] > 100 µM | [39] 24.7 µM | [40] 39.7 µM | [41] > 100 µM | [42] 30.8 µM | [43] 54.6 µM | [44] > 100 µM | [45] > 100 µM | [46] 29.8 µM | [47] 54.1 µM | [48] > 100 µM | [49] 83.6 µM | [50] > 100 µM | [51] > 100 µM | [52] 35.5 µM
27.6 µM: [13]

O=C(CC(Cl)(Cl)C(Cl)(Cl)Cl)c1ccccc1
2.17 µM: [13]
inactive: [1] 6.1 µM | [2] 4.84 µM | [53] 2.73 µM | [54] 2.06 µM | [4] 17.8 µM | [5] 19.9 µM | [55] 2.71 µM | [6] 3.76 µM | [7] 3.01 µM | [56] 2.09 µM | [10] 1.78 µM | [11] 12 µM | [12] 1.78 µM | [14] 3.63 µM | [15] 2.65 µM | [16] 8.99 µM | [17] 1.85 µM | [18] 12 µM | [19] 10.7 µM | [59] 2.04 µM | [20] 3.51 µM | [21] 2.59 µM | [22] 2.27 µM | [23] 2.11 µM | [25] 17.4 µM | [26] 3.65 µM | [27] 3.94 µM | [28] 3.24 µM | [29] 2.3 µM | [57] 3.45 µM | [30] 1.83 µM | [31] 4.7 µM | [32] 18.4 µM | [33] 10.1 µM | [58] 18.4 µM | [34] 3.17 µM | [35] 14.4 µM | [36] 16.2 µM | [37] 2.74 µM | [38] 2.62 µM | [39] 2.22 µM | [40] 4.21 µM | [41] 11.2 µM | [42] 15.3 µM | [43] 1.96 µM | [44] 3.01 µM | [45] 5.26 µM | [47] 3.88 µM | [48] 2.23 µM | [49] 11.7 µM | [50] 2.2 µM | [51] 4.18 µM | [52] 2.1 µM
active: [9] 0.59 µM

Reference: ChEMBL document CHEMBL1201862, “PubChem BioAssay data set” (2004)
